Measured values from ChEMBL document CHEMBL1201862, “PubChem BioAssay data set” (2004).
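Assay format: 96-well plates, 48-hour exposure. The concentration for 50% growth inhibition is given as GI50.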 Active and inactive are the calls of the source. No stated cut-off is given here; in the data, active = GI50 up to about 1.1 µM and inactive = higher.

Experiments:
Assay in all cases: NCI-60 cell line screen, 48 h
CAKI-1 = tested on: CAKI-1
HCC 2998 = tested on: HCC 2998
SN12C = tested on: SN12C
PC-3 = tested on: PC-3
K562 = tested on: K562
SF-539 = tested on: SF-539
TK-10 = tested on: TK-10
NCI-H23 = tested on: NCI-H23
A549 = tested on: A549
SK-OV-3 = tested on: SK-OV-3
U-251 = tested on: U-251
MDA-MB-231 = tested on: MDA-MB-231
MOLT-4 = tested on: MOLT-4
NCI-H226 = tested on: NCI-H226
HCT-15 = tested on: HCT-15
M14 = tested on: M14
UACC-62 = tested on: UACC-62
NCI/ADR-RES = tested on: NCI/ADR-RES
HOP-62 = tested on: HOP-62

Structure (SMILES)	GI50 (CAKI-1)	GI50 (HCC 2998)	GI50 (SN12C)	GI50 (PC-3)	GI50 (K562)	GI50 (SF-539)	GI50 (TK-10)	GI50 (NCI-H23)	GI50 (A549)	GI50 (SK-OV-3)	GI50 (U-251)	GI50 (MDA-MB-231)	GI50 (MOLT-4)	GI50 (NCI-H226)	GI50 (HCT-15)	GI50 (M14)	GI50 (UACC-62)	GI50 (NCI/ADR-RES)	GI50 (HOP-62)
CSc1c(C#N)c(O)n(-c2ccc(Cl)cc2)c(=O)c1C(C)=O	18.7 µM (inactive)	> 100 µM (inactive)	> 100 µM (inactive)	> 100 µM (inactive)	25.5 µM (inactive)	32.9 µM (inactive)	42.6 µM (inactive)	31.5 µM (inactive)	50.2 µM (inactive)	> 100 µM (inactive)	> 100 µM (inactive)	88.3 µM (inactive)	23 µM (inactive)	26.9 µM (inactive)	27.3 µM	89.9 µM (inactive)	69.3 µM (inactive)	38.4 µM (inactive)	–
CCCCCCCCCCCCCCCCCCNc1ccn(C2OC(COP(=O)(O)OCC3OC(n4ccc(NC(=O)CCCCCCCCCCCCCCCCC)nc4=O)C(OC(C)=O)C3OC(C)=O)C(OC(C)=O)C2OC(C)=O)c(=O)n1 (stereo unspecified)	> 100 µM (inactive)	> 100 µM (inactive)	> 100 µM (inactive)	> 100 µM (inactive)	0.0551 µM (active)	> 100 µM (inactive)	> 100 µM (inactive)	> 100 µM (inactive)	> 100 µM (inactive)	> 100 µM (inactive)	> 100 µM (inactive)	> 100 µM (inactive)	> 100 µM (inactive)	> 100 µM (inactive)	> 100 µM	> 100 µM (inactive)	> 100 µM (inactive)	> 100 µM (inactive)	> 100 µM (inactive)
COc1cccc(C2C3=C(COC3=O)Oc3cc4c(cc32)OCO4)c1 (stereo unspecified)	0.0229 µM (active)	0.0723 µM (active)	0.078 µM (active)	0.0196 µM (active)	< 0.0135 µM (active)	0.0211 µM (active)	0.0766 µM (active)	0.0653 µM (active)	0.0412 µM (active)	0.0414 µM (active)	0.0445 µM (active)	0.0718 µM (active)	0.0256 µM (active)	0.0611 µM (active)	0.0172 µM	0.0307 µM (active)	0.0134 µM (active)	0.0168 µM (active)	0.033 µM (active)
